Data as given in US12522582B2 (Gilead Sciences, Inc., priority 2022, dated 2026).
Read-outs that look alike come from different tables or passages of the source.

Test system: HSV-2 virus (MS strain)
Assay: HSV-2 Cellomics Assay (immunofluorescence of HSV protein gD in infected ARPE-19 cells)
Settings: Human alphaherpesvirus 2, ARPE-19, 16 h
[1] = read-out: EC50-HSV2-10% Human Serum

Row | SMILES | EC50 [1] | EC50 (read-out: EC50-HSV2-FBS)
1 | C[C@H]1Cc2ccc(S(N)(=O)=O)cc2N1C(=O)C1Cc2cc(-c3ccccn3)ccc2O1 (stereo partly drawn) [Example 56] | 2220 nM | 255 nM
2 | C[C@@H]1c2ccc(-c3ccccn3)cc2C[C@H]1C(=O)N1CCc2ccc(S(N)(=O)=O)cc21 [Example 93, 1-((1S,2R)-1-methyl-5-(pyridin-2-yl)-2,3-dihydro-1H-indene-2-carbonyl)indoline-6-sulfonamide] | ≥ 25000 nM | 1850 nM
3 | COc1cccc(-c2ccc3c(c2)CC(C(=O)N2CCc4ccc(S(N)(=O)=O)cc42)C3)n1 (stereo not drawn) [Example 77] | 10500 nM | 121 nM
4 | C[S@@](=N)(=O)c1cc2c(cc1F)CCN2C(=O)[C@@H]1Cc2ccc(-c3cc(F)ccc3F)cc2C1 [Example 52] | 2000 nM | 340 nM
5 | NS(=O)(=O)c1ccc2c(c1)N(C(=O)[C@H]1Cc3ccc(-c4ccccn4)cc3C1)CC2 [Example 80, (S)-1-(5-(pyridin-2-yl)-2,3-dihydro-1H-indene-2-carbonyl)indoline-6-sulfonamide] |  | 409 nM
6 | CS(=N)(=O)c1cc2c(cc1F)CCN2C(=O)[C@@H]1Cc2ccc(-c3cc(F)ccc3F)cc2C1 (stereo partly drawn) [Example 51, (1-((R)-5-(2,5-difluorophenyl)-2,3-dihydro-1H-indene-2-carbonyl)-5-fluoroindolin-6-yl)(imino)(methyl)-λ^6-sulfanone] | 239 nM | 53 nM
7 | NS(=O)(=O)c1ccc2c(c1)N(C(=O)C1Cc3ccc(-c4cncc(F)n4)cc3C1)CC2 (stereo not drawn) [Example 18] |  | 180 nM
8 | CCC1Cc2cc(F)c(S(=N)(=O)O)cc2N1C(=O)[C@@H]1Cc2ccc(-c3ccccn3)cc2C1 (mixture of isomers) [Example 112] | 579 nM | 81 nM
9 | C[C@H]1CN(C(=O)[C@@H]2Cc3ccc(-c4ccccn4)cc3C2)c2cc(S(N)(=O)=O)ccc21 [Example 107, (R)-3-methyl-1-((R)-5-(pyridin-2-yl)-2,3-dihydro-1H-indene-2-carbonyl)indoline-6-sulfonamide] | ≥ 25000 nM | 95 nM
10 | Cc1c(S(N)(=O)=O)ccc2c1N(C(=O)C1Cc3ccc(-c4ccccn4)cc3C1)CC2 (stereo not drawn) [Example 1] |  | 721 nM
11 | NS(=O)(=O)c1ccc2c(c1)N(C(=O)C1Cc3ccc(-c4nccs4)cc3C1)CC2 (stereo not drawn) [Example 20] |  | 91 nM
12 | NS(=O)(=O)c1ccc2c(c1)N(C(=O)[C@@H]1Cc3ccc(-c4cccc5ccccc45)cc3C1)CC2 [Example 134, (R)-1-(5-(naphthalen-1-yl)-2,3-dihydro-1H-indene-2-carbonyl)indoline-6-sulfonamide] | 3100 nM | 231 nM
13 | Cc1cc(S(N)(=O)=O)cc2c1CCN2C(=O)C1Cc2ccc(-c3ccccn3)cc2C1 (stereo not drawn) [Example 2] | 23600 nM | 65 nM
14 | COc1cc2c(cc1S(N)(=O)=O)N(C(=O)C1Cc3ccc(-c4ccccn4)cc3C1)CC2 (stereo not drawn) [Example 111, 5-Methoxy-1-[5-(2-pyridyl)indane-2-carbonyl]indoline-6-sulfonamide] | ≥ 25000 nM | 1740 nM
15 | C[C@H]1Cc2cc(Cl)c(S(N)(=O)=O)cc2N1C(=O)[C@@H]1Cc2ccc(-c3ccccn3)cc2C1 [Example 59, (S)-5-chloro-2-methyl-1-((R)-5-(pyridin-2-yl)-2,3-dihydro-1H-indene-2-carbonyl)indoline-6-sulfonamide] | ≥ 10000 nM | 385 nM
16 | NS(=O)(=O)c1ccc2c(c1)N(C(=O)C1Cc3cc(F)c(-c4ccccn4)cc3C1)CC2 (stereo not drawn) [Example 9] | 2600 nM | 105 nM
17 | CC1(C)CN(C(=O)C2Cc3ccc(-c4ccccn4)cc3C2)c2cc(S(N)(=O)=O)ccc21 (stereo not drawn) [Example 109] |  | 390 nM
18 | CC[C@H]1Cc2cc(F)c(S(N)(=O)=O)cc2N1C(=O)[C@@H]1Cc2ccc(-c3ccccn3)cc2C1 [Example 114] | 926 nM | 128 nM
19 | CC1CN(C(=O)[C@H]2Cc3cc(-c4ccccn4)ccc3[C@@H]2C)c2cc(S(N)(=O)=O)ccc21 (stereo partly drawn) [Example 102, 3-methyl-1-((1R,2S)-1-methyl-5-(pyridin-2-yl)-2,3-dihydro-1H-indene-2-carbonyl) indoline-6-sulfonamide] | 905 nM | 160 nM
20 | C[C@H]1CN(C(=O)[C@H]2Cc3cc(-c4ccccn4)c(F)cc3O2)c2cc(S(N)(=O)=O)c(F)cc21 [Example 137, (R)-5-fluoro-1-((R)-6-fluoro-5-(pyridin-2-yl)-2,3-dihydrobenzofuran-2-carbonyl)-3-methylindoline-6-sulfonamide] | 538 nM | 129 nM
21 | CC1CN(C(=O)[C@H]2Cc3cc(-c4ccccn4)ccc3[C@@H]2C)c2cc(S(N)(=O)=O)c(F)cc21 (mixture of isomers) [Example 103, 5-fluoro-3-methyl-1-((1R,2S)-1-methyl-5-(pyridin-2-yl)-2,3-dihydro-1H-indene-2-carbonyl) indoline-6-sulfonamide] | 221 nM | 36 nM
22 | NS(=O)(=O)c1ccc2c(c1)N(C(=O)C1Cc3ccc(-c4ccccn4)c(F)c3C1)CC2 (stereo not drawn) [Example 10] |  | 537 nM

Row | SMILES | EC50 [1] | EC50 (read-out: EC50-HSV2-FBS)
23 | C[C@@H]1Cc2cc(F)c(S(N)(=O)=O)cc2N1C(=O)[C@H]1Cc2ccc(-c3ccccn3)cc2C1 [Example 141, (R)-5-fluoro-2-methyl-1-((S)-5-(pyridin-2-yl)-2,3-dihydro-1H-indene-2-carbonyl)indoline-6-sulfonamide] | 2630 nM | 293 nM
24 | C[C@H]1c2ccc(-c3ccccn3)cc2C[C@@H]1C(=O)N1C[C@H](C(F)(F)F)c2cc(F)c(S(N)(=O)=O)cc21 [Example 139, (R)-5-fluoro-1-((1R,2S)-1-methyl-5-(pyridin-2-yl)-2,3-dihydro-1H-indene-2-carbonyl)-3-(trifluoromethyl)indoline-6-sulfonamide] | 1710 nM | 74.2 nM
25 | NS(=O)(=O)c1cc(Cl)c2c(c1)N(C(=O)C1Cc3ccc(-c4ccccn4)cc3C1)CC2 (stereo not drawn) [Example 7] | ≥ 25000 nM | 62 nM
26 | COc1cncc(-c2ccc3c(c2)CC(C(=O)N2CCc4ccc(S(N)(=O)=O)cc42)C3)n1 (stereo not drawn) [Example 72] | 12300 nM | 252 nM
27 | CS(=N)(=O)c1ccc2c(c1)N(C(=O)C1Cc3ccc(-c4ccccn4)cc3C1)CC2 (stereo not drawn) [Example 29, imino(methyl)(1-(5-(pyridin-2-yl)-2,3-dihydro-1H-indene-2-carbonyl)indolin-6-yl)-λ^6-sulfanone] | 3240 nM | 193 nM
28 | NS(=O)(=O)c1ccc2c(c1)N(C(=O)C1Cc3cc(Cl)c(-c4ccccn4)cc3C1)CC2 (stereo not drawn) [Example 12] |  | 5040 nM
29 | Cc1nc(-c2ccc3c(c2)CC(C(=O)N2CCc4ccc(S(N)(=O)=O)cc42)C3)cs1 (stereo not drawn) [Example 25] | ≥ 25000 nM | 32 nM
30 | C[C@@H]1Cc2cc(F)c(S(N)(=O)=O)cc2N1C(=O)[C@@H]1Cc2cc(-c3ccccn3)ccc2O1 [Example 43] | 9270 nM | 352 nM
31 | NS(=O)(=O)c1ccc2c(c1)N(C(=O)C1Cc3ccc(-c4ccccn4)cc3O1)CC2 (stereo not drawn) [Example 115, 1-(6-(pyridin-2-yl)-2,3-dihydrobenzofuran-2-carbonyl)indoline-6-sulfonamide] | 1640 nM | 99 nM
32 | C[C@H]1c2cc(F)c(S(N)(=O)=O)cc2N(C(=O)[C@@H]2Cc3ccc(-c4ccccn4)cc3C2)[C@H]1C [Example 49, (2S,3S)-5-fluoro-2,3-dimethyl-1-((R)-5-(pyridin-2-yl)-2,3-dihydro-1H-indene-2-carbonyl)indoline-6-sulfonamide] | 1040 nM | 162 nM
33 | NS(=O)(=O)c1ccc2c(c1)N(C(=O)[C@@H]1Cc3ccc(-c4ncccn4)cc3C1)CC2 [Example 133, (R)-1-(5-(pyrimidin-2-yl)-2,3-dihydro-1H-indene-2-carbonyl)indoline-6-sulfonamide] | 6130 nM | 102 nM
34 | NS(=O)(=O)c1ccc2c(c1)N(C(=O)C1Cc3ccc(-c4ccccn4)cc3C1)CC2 (stereo not drawn) [Example 71, 1-(5-(pyridin-2-yl)-2,3-dihydro-1H-indene-2-carbonyl) indoline-6-sulfonamide] | ≥ 25000 nM | 30 nM
35 | COc1nc(-c2ccc3c(c2)CC(C(=O)N2CCc4ccc(S(N)(=O)=O)cc42)C3)cs1 (stereo not drawn) [Example 26] |  | 131 nM
36 | C[C@@H]1c2cc(F)c(S(N)(=O)=O)cc2N(C(=O)[C@@H]2Cc3ccc(-c4ccccn4)cc3C2)[C@H]1C [Example 47, (2S,3R)-5-fluoro-2,3-dimethyl-1-((R)-5-(pyridin-2-yl)-2,3-dihydro-1H-indene-2-carbonyl)indoline-6-sulfonamide] | 3660 nM | 423 nM
37 | C[C@@H]1CN(C(=O)[C@H]2Cc3cc(-c4ccccn4)ccc3[C@@H]2C)c2cc(S(N)(=O)=O)c(F)cc21 (single isomer, unassigned) [Example 105] | 251 nM | 45 nM
38 | C[S@@](=N)(=O)c1cc2c(cc1F)CCN2C(=O)[C@@H]1Cc2ccc(-c3ccccn3)cc2C1 [Example 40, (R)-(5-fluoro-1-((R)-5-(pyridin-2-yl)-2,3-dihydro-1H-indene-2-carbonyl)indolin-6-yl)(imino)(methyl)-16-sulfanone] | 816 nM | 196 nM
39 | C[S@@](=N)(=O)c1ccc2c(c1)N(C(=O)[C@@H]1Cc3ccc(-c4ccccn4)cc3C1)CC2 (single isomer, unassigned) [Example 31] | 9380 nM | 849 nM
40 | CC1CN(C(=O)[C@@H]2Cc3cc(-c4ccccn4)ccc3[C@H]2C)c2cc(S(N)(=O)=O)ccc21 (stereo partly drawn) [Example 101, 3-methyl-1-((1S,2R)-1-methyl-5-(pyridin-2-yl)-2,3-dihydro-1H-indene-2-carbonyl)indoline-6-sulfonamide] |  | 6760 nM
41 | C[C@H]1Cc2ccc(S(N)(=O)=O)cc2N1C(=O)[C@H]1Cc2ccc(-c3ccccn3)cc2C1 (single isomer, unassigned) [Example 17] |  | 551 nM
42 | CC1c2ccc(-c3ccccn3)cc2CC1C(=O)N1CCc2ccc(S(N)(=O)=O)cc21 (stereo not drawn) [Example 92] | 238 nM | 28 nM
43 | NS(=O)(=O)c1ccc2c(c1)N(C(=O)[C@H]1Cc3ccc(-c4ccccc4F)cc3C1)CC2 [Example 82, (S)-1-(5-(2-fluorophenyl)-2,3-dihydro-1H-indene-2-carbonyl)indoline-6-sulfonamide] |  | 8040 nM
